Columns and labels:
Format in all cases: functional
LOX IMVI = test: Growth inhibition of human LOXIMVI cells assessed as cell growth at 10^-4 M by sulforhodamine B assay; conditions: read-out: Activity
786-0 = test: Growth inhibition of human 786-0 cells assessed as cell growth at 10 uM by sulforhodamine B assay; conditions: read-out: Activity
HOP-62 [1] = test: Growth inhibition of human HOP62 cells assessed as cell growth at 10^-8 M by sulforhodamine B assay; conditions: read-out: Activity
SNB-19 [2] = test: Growth inhibition of human SNB19 cells assessed as cell growth at 10^-6 M by sulforhodamine B assay; conditions: read-out: Activity
[3] = Growth inhibition of human NCI-ADR-RES cells assessed as growth inhibition at 10 uM by sulforhodamine B assay; conditions: read-out: GI
COLO 205 [4] = test: Growth inhibition of human COLO205 cells assessed as cell growth at 10^-4 M by sulforhodamine B assay; conditions: read-out: Activity
HCT-15 [5] = test: Growth inhibition of human HCT15 cells assessed as cell growth at 10^-6 M by sulforhodamine B assay; conditions: read-out: Activity
T47D [6] = test: Growth inhibition of human T47D cells assessed as cell growth at 10^-6 M by sulforhodamine B assay; conditions: read-out: Activity
SK-MEL-2 [7] = test: Growth inhibition of human SK-MEL-2 cells by sulforhodamine B assay
SK-OV-3 = test: Growth inhibition of human SKOV3 cells assessed as cell growth at 10 uM by sulforhodamine B assay; conditions: read-out: Activity
A498 = test: Growth inhibition of human A498 cells assessed as cell growth at 10 uM by sulforhodamine B assay; conditions: read-out: Activity
[8] = Growth inhibition of human EKVX cells assessed as cell growth at 10 uM by sulforhodamine B assay; conditions: read-out: Activity
SNB-19 [9] = test: Growth inhibition of human SNB19 cells assessed as cell growth at 10 uM by sulforhodamine B assay; conditions: read-out: Activity
OVCAR-4 = test: Growth inhibition of human OVCAR4 cells assessed as cell growth at 10^-7 M by sulforhodamine B assay; conditions: read-out: Activity
HOP-62 [10] = test: Growth inhibition of human HOP62 cells assessed as cell growth at 10^-4 M by sulforhodamine B assay; conditions: read-out: Activity
TK-10 = test: Growth inhibition of human TK10 cells assessed as cell growth at 10 uM by sulforhodamine B assay; conditions: read-out: Activity
PC-3 = test: Growth inhibition of human PC3 cells assessed as cell growth at 10^-7 M by sulforhodamine B assay; conditions: read-out: Activity
DU-145 = test: Growth inhibition of human DU145 cells assessed as cell growth at 10 uM by sulforhodamine B assay; conditions: read-out: Activity
NCI-H322M = test: Growth inhibition of human NCI-H322M cells assessed as cell growth at 10^-7 M by sulforhodamine B assay; conditions: read-out: Activity
KM12 [11] = test: Growth inhibition of human KM12 cells assessed as growth inhibition at 10 uM by sulforhodamine B assay; conditions: read-out: GI
SK-MEL-2 [12] = test: Growth inhibition of human SK-MEL-2 cells assessed as growth inhibition at 10 uM by sulforhodamine B assay; conditions: read-out: GI
HCT-15 [13] = test: Growth inhibition of human HCT15 cells by sulforhodamine B assay
NCI-H226 = test: Growth inhibition of human NCI-H226 cells assessed as cell growth at 10^-7 M by sulforhodamine B assay; conditions: read-out: Activity
T47D [14] = test: Growth inhibition of human T47D cells assessed as growth inhibition at 10 uM by sulforhodamine B assay; conditions: read-out: GI
T47D [15] = test: Growth inhibition of human T47D cells assessed as cell growth at 10^-4 M by sulforhodamine B assay; conditions: read-out: Activity
SK-MEL-5 = test: Growth inhibition of human SK-MEL-5 cells assessed as growth inhibition at 10 uM by sulforhodamine B assay; conditions: read-out: GI
SNB-19 [16] = test: Growth inhibition of human SNB19 cells assessed as growth inhibition at 10 uM by sulforhodamine B assay; conditions: read-out: GI
HT-29 = test: Growth inhibition of human HT-29 cells assessed as cell growth at 10 uM by sulforhodamine B assay; conditions: read-out: Activity
K562 = test: Growth inhibition of human K562 cells assessed as cell growth at 10 uM by sulforhodamine B assay; conditions: read-out: Activity
KM12 [17] = test: Growth inhibition of human KM12 cells assessed as cell growth at 10^-4 M by sulforhodamine B assay; conditions: read-out: Activity
COLO 205 [18] = test: Growth inhibition of human COLO205 cells assessed as cell growth at 10 uM by sulforhodamine B assay; conditions: read-out: Activity
SW-620 = test: Growth inhibition of human SW620 cells assessed as cell growth at 10 uM by sulforhodamine B assay; conditions: read-out: Activity
BT-549 [19] = test: Growth inhibition of human BT549 cells by sulforhodamine B assay
HCT-15 [20] = test: Growth inhibition of human HCT15 cells assessed as growth inhibition at 10 uM by sulforhodamine B assay; conditions: read-out: GI
UACC-257 = test: Growth inhibition of human UACC257 cells assessed as cell growth at 10^-4 M by sulforhodamine B assay; conditions: read-out: Activity
SF-295 = test: Growth inhibition of human SF295 cells assessed as cell growth at 10^-6 M by sulforhodamine B assay; conditions: read-out: Activity
[21] = Growth inhibition of human Hs 578T cells assessed as growth inhibition at 10 uM by sulforhodamine B assay; conditions: read-out: GI
HCT-15 [22] = test: Growth inhibition of human HCT15 cells assessed as cell growth at 10^-7 M by sulforhodamine B assay; conditions: read-out: Activity
OVCAR-5 = test: Growth inhibition of human OVCAR5 cells assessed as growth inhibition at 10 uM by sulforhodamine B assay; conditions: read-out: GI
OVCAR-8 [23] = test: Growth inhibition of human OVCAR8 cells assessed as growth inhibition at 10 uM by sulforhodamine B assay; conditions: read-out: GI
OVCAR-8 [24] = test: Growth inhibition of human OVCAR8 cells assessed as cell growth at 10^-8 M by sulforhodamine B assay; conditions: read-out: Activity
ACHN = test: Growth inhibition of human ACHN cells assessed as growth inhibition at 10 uM by sulforhodamine B assay; conditions: read-out: GI
UO-31 = test: Growth inhibition of human UO31 cells assessed as cell growth at 10 uM by sulforhodamine B assay; conditions: read-out: Activity
RPMI-8226 = test: Growth inhibition of human RPMI8226 cells assessed as cell growth at 10^-7 M by sulforhodamine B assay; conditions: read-out: Activity
SR = test: Growth inhibition of human SR cells assessed as cell growth at 10^-7 M by sulforhodamine B assay; conditions: read-out: Activity
BT-549 [25] = test: Growth inhibition of human BT549 cells assessed as cell growth at 10^-7 M by sulforhodamine B assay; conditions: read-out: Activity
[26] = read-out: LC50 (the source's name)
[27] = read-out: pLC50 (the source's name) (converted)

`CC(C)=CC(=O)O[C@@H]1CC(C)(C)C[C@H]2C3=CC[C@@H]4[C@@]5(C)CCC(=O)C(C)(C)[C@@H]5CC[C@@]4(C)[C@]3(C)CC[C@@]12C(=O)O` showed a growth at 100 µM (LOX IMVI) of -47%, a growth at 10 µM (786-0) of 44.1% and a growth at 0.01 µM (HOP-62 [1]) of 93%. For the same molecule, the growth at 1 µM (SNB-19 [2]) was 87%, the inhibition of growth at 10 µM [3] was 40% and the growth at 100 µM (COLO 205 [4]) was -76%. The growth at 1 µM (HCT-15 [5]) was 55%, the growth at 1 µM (T47D [6]) was 92% and the GI50 (SK-MEL-2 [7]; read-out: GI50) was 3.48 µM. The CC50 (SK-MEL-2 [7]; [26]) was 61.3 µM, the TGI (SK-MEL-2 [7]; read-out: TGI) was 16.9 µM and the GI50 (SK-MEL-2 [7]; read-out: pGI50 (converted)) was 3.47 µM. It also gave a CC50 (SK-MEL-2 [7]; [27]) of 61.7 µM, a TGI (SK-MEL-2 [7]; read-out: pTGI (converted)) of 17 µM and a growth at 10 µM (SK-OV-3) of 95.4%. It also gave a growth at 10 µM (A498) of 101%, a growth at 10 µM [8] of 41.2% and a growth at 10 µM (SNB-19 [9]) of 57.3%. The growth at 0.1 µM (OVCAR-4) was 97%, the growth at 100 µM (HOP-62 [10]) was -21% and the growth at 10 µM (TK-10) was 78.1%. For the same molecule, the growth at 0.1 µM (PC-3) was 86%, the growth at 10 µM (DU-145) was 74.5% and the growth at 0.1 µM (NCI-H322M) was 90%. The inhibition of growth at 10 µM (KM12 [11]) was 69.6%, the inhibition of growth at 10 µM (SK-MEL-2 [12]) was 21.8% and the GI50 (HCT-15 [13]; read-out: GI50) was 1290 nM. The LC50 (50% lethal concentration) (HCT-15 [13]; read-out: LC50) was greater than 100 µM, the TGI (HCT-15 [13]; read-out: TGI) was 15.6 µM and the GI50 (HCT-15 [13]; read-out: pGI50 (converted)) was 1290 nM. The LC50 (50% lethal concentration) (HCT-15 [13]; read-out: pLC50 (converted)) was greater than 100 µM, the TGI (HCT-15 [13]; read-out: pTGI (converted)) was 15.5 µM and the growth at 0.1 µM (NCI-H226) was 87%. It also gave an inhibition of growth at 10 µM (T47D [14]) of 38.4%, a growth at 100 µM (T47D [15]) of 23% and an inhibition of growth at 10 µM (SK-MEL-5) of 52.1%. The inhibition of growth at 10 µM (SNB-19 [16]) was 42.7%, the growth at 10 µM (HT-29) was 57.3% and the growth at 10 µM (K562) was 45%. It also gave a growth at 100 µM (KM12 [17]) of -69%, a growth at 10 µM (COLO 205 [18]) of 71% and a growth at 10 µM (SW-620) of 62.7%. It also gave a GI50 (BT-549 [19]; read-out: GI50) of 4.79 µM, a CC50 (BT-549 [19]; [26]) greater than 100 µM and a TGI (BT-549 [19]; read-out: TGI) of 25 µM. It also gave a GI50 (BT-549 [19]; read-out: pGI50 (converted)) of 4.79 µM, a CC50 (BT-549 [19]; [27]) greater than 100 µM and a TGI (BT-549 [19]; read-out: pTGI (converted)) of 25.1 µM. It also gave an inhibition of growth at 10 µM (HCT-15 [20]) of 81.4%, a growth at 100 µM (UACC-257) of -15% and a growth at 1 µM (SF-295) of 63%. It also gave an inhibition of growth at 10 µM [21] of 20.4%, a growth at 0.1 µM (HCT-15 [22]) of 86% and an inhibition of growth at 10 µM (OVCAR-5) of less than 10%. It also gave an inhibition of growth at 10 µM (OVCAR-8 [23]) of 44.9%, a growth at 0.01 µM (OVCAR-8 [24]) of 95% and an inhibition of growth at 10 µM (ACHN) of 56.1%. For the same molecule, the growth at 10 µM (UO-31) was 42%, the growth at 0.1 µM (RPMI-8226) was 91% and the growth at 0.1 µM (SR) was 99%. The growth at 0.1 µM (BT-549 [25]) was 109%.

Source: ChEMBL document CHEMBL2413072, “Synthesis and in vitro anticancer studies of novel C-2 arylidene congeners of lantadenes” (2013)
